PMC6054692, “Library screening of cell-penetrating peptide for BY-2 cells, leaves of Arabidopsis, tobacco, tomato, poplar, and rice callus” (Scientific Reports, 2018)

Test system: BY-2 cells
Test: Cell penetration efficiency into BY-2 suspension culture cells (CLSM of TAMRA-labeled CPP)
Settings: negative control without CPP, 15 min, 1 h, 3 h and 6 h at 26 °C, BY-2 cells 3 days after subculture
Description: To evaluate the cell penetration efficiency of the 55 CPPs into BY-2 suspension culture cells, we first optimized the CPP concentration and cell density using BP100 as a model CPP. The cell penetration efficiency of CPP into BY-2 cells was determined based on the ratio of numbers of cell with and without TAMRA signals of CPP by confocal laser scanning microscopy (CLSM) (Fig. 2). […] Thus, we used the BY-2 cells at 3 days after subculture as well as the incubation time of 3 hours for all the experiments in this study.
Suspension-cultured tobacco (Nicotiana tabacum) cv. BY-2 cells were provided by the RIKEN Bio Resource Center. […]
The penetration efficiency of CPPs into BY-2 suspension cells and young true leaves of N. benthamiana, A. thaliana, Moneymaker tomato, O. sativa Nipponbare, and poplar, and O. sativa callus was determined using confocal laser scanning microscopy (CLSM, ZeissLSM 700, Carl Zeiss, Oberkochen, Germany). The intracellular localization of TAMRA-labeled CPP was observed using excitation at 555 nm for the detection of TAMRA fluorescence. The total number of cells was counted using differential interfering contrast images. The efficiency was determined as follows: Cellpenetrationefficiency(%)=(thenumberofstainedcells)/(thenumberoftotalcells)×100 Various BY-2 cell concentrations (230 to >1000 cells/µL) of BY-2 cells were tested to determine the optimal cell concentration. […]

CN(C)c1ccc2c(-c3ccc(C(=O)O)cc3C(=O)[O-])c3ccc(N(C)C)cc3[o+]c2c1 [TAMRA, 5-carboxytetramethylrhodamine]
Penetration of TAMRA alone into BY-2 cells: could not penetrate
